Patent US11555014B2, “High penetration prodrug compositions of prostaglandins and related compounds” (Techfields Pharma Co., Ltd., priority 2006, dated 2023)

What was measured:
[1] = In vitro penetration rate across isolated human skin in modified Franz cells; conditions: for In vitro penetration rate (apparent flux), parent compounds: 10% suspension in pH 7.4 phosphate buffer (0.2 M), n=5, lowest detectable flux 1 μg/cm^2/h; for In vitro penetration rate (apparent flux), prodrug compounds: 10% solution in pH 7.4 phosphate buffer (0.2 M), n=5
Description: The penetration rates of HPPs and their parent drugs through human skin were measured in vitro by modified Franz cells. The Franz cells have two chambers, the top sample chamber and the bottom receiving chamber. The human skin tissue (360-400 μm thick) that separates the top and the receiving chambers was isolated from the anterior or posterior thigh areas.
The compound tested (2 mL, 20% in 0.2 M phosphate buffer, pH. 7.4) were added to the sample chamber of a Franz cell. The receiving chamber contains 10 ml of 2% bovine serum albumin in saline which was stirred at 600 rpm. The cumulative amounts of the tested compounds penetrating the skin versus time were determined by high-performance liquid chromatography (HPLC) method.

cat eye = assay: Irritative effect or ocular discomfort in the cat eye after topical application; type: in vivo; conditions: first 2 hours, scale 0 (no discomfort) to 4 (maximal irritation, complete lid closure)
Description: Irritative effect or ocular discomfort in the cat eye of naturally occurring and modified prostaglandins and their novel prodrugs were evaluated during the first hours after the topical application of the respective test drug. The ocular discomfort was graded on a scale from 0 to 4, 0 indicating complete absence of any signs of discomfort, and 4 indicating maximal irritation as obvious from complete lid closure.

rabbit eye = assay: Conjunctival hyperemia in the rabbit eye after topical application; type: in vivo; conditions: first 2 hours, scale 0 (no hyperemia) to 4 (marked hyperemia with conjunctive chemosis)
Description: Conjunctival hyperemia in the rabbit eye of naturally occurring and modified prostaglandins and their novel prodrugs was evaluated during the first 2 hours after topical application of the respective test drug. The conjunctival hyperemia was graded on a scale from 0 to 4, 0 indicating complete absence of any hyperemia, and 4 indicating marked hyperemia with conjunctive chemosis.

| SMILES | In vitro penetration rate (apparent flux), parent compounds [1] [mg/cm^2/h] | In vitro penetration rate (apparent flux), prodrug compounds [1] [mg/cm^2/h] | further results |
| --- | --- | --- | --- |
| CCCCC(C)(O)C/C=C/[C@H]1[C@H](O)CC(=O)[C@@H]1CCCCCCC(=O)OC (mixture of isomers) [Misoprostol, reference compound] | 0.001 | – | – |
| O=C(O)CCC/C=C\C[C@@H]1[C@@H](/C=C/[C@@H](O)COc2cccc(C(F)(F)F)c2)[C@H](O)C[C@@H]1O (racemic) [Fluprostenol, reference compound] | 0.001 | – | – |
| CCNC(=O)CCC/C=C\C[C@@H]1[C@@H](/C=C/[C@@H](O)CCc2ccccc2)[C@H](O)C[C@@H]1O [Bimatoprost, reference compound] | 0.001 | – | Degree of irritative effect (cat eye; dose 0.001% topical): 2.5; Degree of irritative effect (conjunctival hyperemia) (rabbit eye; dose 0.001% topical): 2.5 |
| CCCCC[C@](C)(O)/C=C/[C@@H]1[C@@H](C/C=C\CCCC(=O)O)[C@@H](O)C[C@H]1O [Carboprost, reference compound] | 0.001 | – | – |
| O=C(O)CCC/C=C\CC1C(O)CC(O)C1/C=C/C(O)COc1cccc(Cl)c1 (centres unmarked) [Cloprostenol, reference compound] | 0.001 | – | – |
| CCCCC(C)(C)[C@H](O)/C=C/[C@H]1[C@H](O)CC(=O)[C@@H]1CCCC/C=C/C(=O)OC [Gemeprost, reference compound] | 0.001 | – | – |
| CC(C)OC(=O)CCC/C=C\C[C@@H]1[C@@H](CC[C@@H](O)CCc2ccccc2)[C@H](O)C[C@@H]1O [Latanoprost, 13,14-dihydro-17-phenyl-18,19,20-trinor PGF2α isopropyl ester, reference compound] | 0.001 | – | Degree of irritative effect (cat eye; dose 0.001% topical): 2.5 |
| CC(=O)O.CCCCCC(O)C=C[C@H]1C(O)CC2OC(=CCCCC(=O)OCCN(CC)CC)C[C@@H]21 (some centres unmarked) [N,N-diethylaminoethyl 6,9-epoxy-11,15-dihydroxyprosta-5,13-dien-1-oate•AcOH] | – | 1.11 | – |
| CC(=O)O.CCN(CC)CCOC(=O)CCC=C=CCC1C(O)CC(O)C1C=CC(O)COc1ccccc1 (centres unmarked) [N,N-diethylaminoethyl 7-[3,5-dihydroxy-2-(3-hydroxy-4-phenoxy-1-butenyl)cyclopentyl]-4,5-heptadien-1-oate•AcOH] | – | 0.81 | – |
| CC(=O)O.CCN(CC)CCOC(=O)CCCC=CCC1C(=O)CC(O)C1C=CC(O)COc1ccccc1 (centres unmarked) [N,N-diethylaminoethyl 7-[3-hydroxy-2-(3-hydroxy-4-phenoxy-1-butenyl)-5-oxocyclopentyl]-5-heptenoate•AcOH] | – | 1.01 | – |
| CC(=O)O.CCN(CC)CCOC(=O)CCCC=CCC1C(O)CC(O)C1C=CC(O)COc1cccc(Cl)c1 (centres unmarked) [N,N-diethylaminoethyl 7-{2-[4-(3-chlorophenoxy)-3-hydroxy-1-butenyl]-3,5-dihydroxycyclopentyl}-5-heptenoate•AcOH] | – | 0.92 | – |
| CC(=O)O.CCN(CC)CCOC(=O)CCCC=CCC1C(O)CC(O)C1C=CC(O)COc1cccc(C(F)(F)F)c1 (centres unmarked) [N,N-diethylaminoethyl 7-{3,5-dihydroxy-2-[3-hydroxy-4-(3-trifluoromethylphenoxy)-1-butenyl]cyclopentyl}-5-heptenoate•AcOH] | – | 0.86 | – |
| CC(=O)O.CCCCCC(C)(O)C=C[C@H]1C(O)CC(O)[C@@H]1CC=C=CCCC(=O)OCCN(CC)CC (some centres unmarked) [N,N-diethylaminoethyl 9,11,15-trihydroxy-15-methylprosta-4,5,13-trien-1-oate•AcOH] | – | 0.90 | – |
| CC(=O)O.CCCCCC(O)C=C[C@H]1C(O)CC(O)[C@@H]1CCCCCCC(=O)OCCN(CC)CC (some centres unmarked) [N,N-diethylaminoethyl 9,11,15-trihydroxyprost-13-en-1-oate•AcOH] | – | 0.85 | – |
| CC(=O)O.CCCCCC(O)C=C[C@H]1C(O)CC(=O)[C@@H]1CC=CCCCC(=O)OCCN(CC)CC (some centres unmarked) [N,N-diethylaminoethyl 11,15-dihydroxy-9-oxoprosta-5,13-dien-1-oate.AcOH] | – | 1.10 | – |
| CC(=O)O.CCCCC(C)(C)C(O)C=C[C@H]1C(O)CC(=O)[C@@H]1CCCCC=CC(=O)OCCN(CC)CC (some centres unmarked) [N,N-diethylaminoethyl 11,15-dihydroxy-16,16-dimethyl-9-oxoprosta-2,13-dien-1-oate•AcOH] | – | 0.88 | – |
| CC(=O)O.CCCCC(C)(O)CC=C[C@H]1C(O)CC(=O)[C@@H]1CCCCCCC(=O)OCCN(CC)CC (some centres unmarked) [N,N-diethylaminoethyl 11,16-dihydroxy-9-oxo-16-methylprost-13-en-1-oate•AcOH] | – | 1.09 | – |
| CCCCC[C@H](O)/C=C/[C@H]1[C@H](O)CC(=O)[C@@H]1CCCCCCC(=O)O [PGE1, reference compound] | – | – | Degree of irritative effect (cat eye; dose 0.001% topical): 4; Degree of irritative effect (conjunctival hyperemia) (rabbit eye; dose 0.001% topical): 4 |
| CCCCC[C@H](O)/C=C/[C@@H]1[C@@H](CCCCCCC(=O)O)[C@@H](O)C[C@H]1O [PGE1α, reference compound] | 0.001 | – | – |
| CCCCC[C@H](O)/C=C/[C@H]1[C@H](O)CC(=O)[C@@H]1C/C=C\CCCC(=O)O [PGE2, reference compound] | 0.001 | – | Degree of irritative effect (cat eye; dose 0.001% topical): 3.5; Degree of irritative effect (conjunctival hyperemia) (rabbit eye; dose 0.001% topical): 4 |
| CCCCC[C@H](O)/C=C/[C@@H]1[C@@H](C/C=C\CCCC(=O)O)[C@@H](O)C[C@H]1O [PGF2α, reference compound] | – | – | Degree of irritative effect (cat eye; dose 0.001% topical): 3.5; Degree of irritative effect (conjunctival hyperemia) (rabbit eye; dose 0.001% topical): 4 |
| CCCCC[C@H](O)/C=C/[C@@H]1[C@H]2C/C(=C/CCCC(=O)O)O[C@H]2C[C@H]1O [PGI2, prostacyclin, reference compound] | 0.001 | – | – |
| CCCCCC(C)(O)/C=C/[C@@H]1[C@@H](CC=C=CCCC(=O)OC)[C@@H](O)C[C@H]1O (some centres unmarked) [Prostalene, reference compound] | 0.001 | – | – |
| CS(=O)(=O)NC(=O)CCC/C=C\C[C@H]1C(=O)C[C@@H](O)[C@@H]1/C=C/[C@@H](O)COc1ccccc1 [Sulprostone, reference compound] | 0.001 | – | – |
| CCCCCCCC(=O)CC[C@@H]1[C@@H](C/C=C\CCCC(=O)O)[C@@H](O)C[C@H]1O [Unoprostone, 13,14-dihydro-15-keto-20-ethyl Prostaglandin F2α, reference compound] | 0.001 | – | Degree of irritative effect (cat eye; dose 0.01% topical): 2.5; Degree of irritative effect (conjunctival hyperemia) (rabbit eye; dose 0.01% topical): 2.5 |
| COC(=O)CCC=C=CCC1C(O)CC(O)C1/C=C/C(O)COc1ccccc1 (centres unmarked) [fenprostalene, reference compound] | 0.001 | – | – |
